Assay results reported in patent US20180207228A1, “PEPTIDE COMBINATIONS AND USES THEREOF FOR TREATING GRASS ALLERGY” (ALK-Abelló A/S, priority 2015, published 2018).
Where no end group is shown, it is not given here.

Experiments:
Assay type in all cases: cell-based, human
[1] = tested on: release of IL-5 upon T cell activation; test: Fluorospot assay, IL-5 release (DK1-TCL01, US1-TCL01); settings: head prints TCL-02 DK1; text: 25 TCL-01 DK1 lines
Procedure, shortened: (§1)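 A peptide counted as a hit at ≥20 SFC/10^6 cells, stimulation index ≥2 over medium, and p and Poisson ≤0.05. Cells came from TCL01 lines, raised from allergic donors' CD8-depleted PBMCs over 14 days of natural-allergen stimulation with IL-2. They were exposed to 2 μg/ml peptide or peptide mix for 20 h at 37° C.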

[2] = tested on: release of IFN-γ upon T cell activation; test: Fluorospot assay, IFN-γ release (DK1-TCL01, US1-TCL01); settings: head prints TCL-02 DK1; 17 TCL-01 DK1 lines
Procedure, shortened: as §1

[3] = tested on: allergen specific T cells; test: T cell proliferation assay (72 h) on donor derived T cell lines (TCL02/TCL03); settings: for Proliferation % donor coverage (TCL-02 DK1): T cell lines TCL-02 DK1, 30 donors, hit criteria SI>=2, CPM>=1000; for Proliferation strength (TCL-02 DK1): T cell lines TCL-02 DK1, strength of response (average relative magnitude)
Procedure, shortened: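 Overlapping 20-mer and selected 15-mer grass allergen peptides were screened for proliferation using TCL02 (day 24) or TCL03 (day 34) lines. Lines came from grass-allergic donors' CD8-depleted PBMCs, primed with natural allergen mix and expanded with irradiated autologous or allogeneic APCs, PHA-P 0.5 μg/ml and rIL-2.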

EAAFNNAIKASTGGAYESYK-OH [compound 83]
IL-5-Fluorospotr % donor coverage (TCL-02 DK1) [1]: 0.00%
IFN-gamma % donor coverage (TCL-02 DK1) [2]: 0.00%
Proliferation % donor coverage (TCL-02 DK1) [3]: 10.00%
Proliferation strength (TCL-02 DK1) [3]: 0.90

TATYGSKWLEARATFYGSNP-OH [compound 90]
IL-5-Fluorospotr % donor coverage (TCL-02 DK1) [1]: 12.00%
IFN-gamma % donor coverage (TCL-02 DK1) [2]: 4.00%
Proliferation % donor coverage (TCL-02 DK1) [3]: 26.67%
Proliferation strength (TCL-02 DK1) [3]: 3.50

PMKSSWGAIWRIDPKKPLKG-OH [compound 108]
IL-5-Fluorospotr % donor coverage (TCL-02 DK1) [1]: 4.00%
IFN-gamma % donor coverage (TCL-02 DK1) [2]: 0.00%
Proliferation % donor coverage (TCL-02 DK1) [3]: 33.33%
Proliferation strength (TCL-02 DK1) [3]: 4.10

YFKGNFERLAITKGKVDPTD-OH [compound 59]
IL-5-Fluorospotr % donor coverage (TCL-02 DK1) [1]: 0.00%
IFN-gamma % donor coverage (TCL-02 DK1) [2]: 0.00%
Proliferation % donor coverage (TCL-02 DK1) [3]: 30.00%
Proliferation strength (TCL-02 DK1) [3]: 3.20

YLALLVKYAAGDGNIVAVDI-OH [compound 105]
IL-5-Fluorospotr % donor coverage (TCL-02 DK1) [1]: 12.00%
IFN-gamma % donor coverage (TCL-02 DK1) [2]: 4.00%
Proliferation % donor coverage (TCL-02 DK1) [3]: 16.67%
Proliferation strength (TCL-02 DK1) [3]: 1.90

VRYTTEGGTKTEAEDVIPEG-OH [compound 12]
IL-5-Fluorospotr % donor coverage (TCL-02 DK1) [1]: 8.00%
IFN-gamma % donor coverage (TCL-02 DK1) [2]: 8.00%
Proliferation % donor coverage (TCL-02 DK1) [3]: 23.33%
Proliferation strength (TCL-02 DK1) [3]: 7.00

CC(C)C[C@H](NC(=O)[C@H](CCC(=O)O)NC(=O)CN)C(=O)N[C@@H](CCC(=O)O)C(=O)N[C@@H](CC(C)C)C(=O)N[C@@H](CCC(N)=O)C(=O)N[C@@H](Cc1ccccc1)C(=O)N[C@@H](CCCNC(=N)N)C(=O)N[C@@H](CCCNC(=N)N)C(=O)N[C@H](C(=O)N[C@@H](CCCCN)C(=O)N[C@@H](CO)C(=O)N[C@@H](CCCCN)C(=O)N[C@@H](Cc1ccc(O)cc1)C(=O)N1CCC[C@H]1C(=O)O)C(C)C [compound 118]
IL-5-Fluorospotr % donor coverage (TCL-02 DK1) [1]: 25.00%
IFN-gamma % donor coverage (TCL-02 DK1) [2]: 4.00%
Proliferation % donor coverage (TCL-02 DK1) [3]: 65.52%
Proliferation strength (TCL-02 DK1) [3]: 11.50

FRRVKSKYPEGTKVTFHVEK-OH [compound 23]
IL-5-Fluorospotr % donor coverage (TCL-02 DK1) [1]: 4.00%
IFN-gamma % donor coverage (TCL-02 DK1) [2]: 0.00%
Proliferation % donor coverage (TCL-02 DK1) [3]: 20.00%
Proliferation strength (TCL-02 DK1) [3]: 1.60

CC[C@H](C)[C@H](NC(=O)[C@@H](NC(=O)[C@H](CC(=O)O)NC(=O)[C@H](CCC(=O)O)NC(=O)[C@H](C)NC(=O)[C@H](CCC(=O)O)NC(=O)[C@@H](N)[C@@H](C)O)C(C)C)C(=O)N1CCC[C@H]1C(=O)N[C@@H](CCC(=O)O)C(=O)NCC(=O)N[C@@H](Cc1c[nH]c2ccccc12)C(=O)N[C@@H](CCCCN)C(=O)N[C@@H](C)C(=O)N[C@@H](CC(=O)O)C(=O)N[C@H](C(=O)N[C@@H](CO)C(=O)N[C@@H](Cc1ccc(O)cc1)C(=O)N[C@@H](CCC(=O)O)C(=O)N[C@@H](CO)C(=O)N[C@@H](CCCCN)C(=O)O)[C@@H](C)O [compound 13]
IL-5-Fluorospotr % donor coverage (TCL-02 DK1) [1]: 16.00%
IFN-gamma % donor coverage (TCL-02 DK1) [2]: 8.00%
Proliferation % donor coverage (TCL-02 DK1) [3]: 43.33%
Proliferation strength (TCL-02 DK1) [3]: 8.10

RNEVVNDVSTYASGKVWGQK-OH [compound 57]
IL-5-Fluorospotr % donor coverage (TCL-02 DK1) [1]: 4.00%
IFN-gamma % donor coverage (TCL-02 DK1) [2]: 4.00%
Proliferation % donor coverage (TCL-02 DK1) [3]: 16.67%
Proliferation strength (TCL-02 DK1) [3]: 2.00

AYKTAEGATPEAKYDAYVAT-OH [compound 79]
IL-5-Fluorospotr % donor coverage (TCL-02 DK1) [1]: 0.00%
IFN-gamma % donor coverage (TCL-02 DK1) [2]: 0.00%
Proliferation % donor coverage (TCL-02 DK1) [3]: 26.67%
Proliferation strength (TCL-02 DK1) [3]: 3.30

CC[C@H](C)[C@H](NC(=O)[C@@H](N)CC(=O)O)C(=O)N[C@@H](CC(N)=O)C(=O)N[C@H](C(=O)NCC(=O)N[C@@H](Cc1ccccc1)C(=O)N[C@@H](CCCCN)C(=O)N[C@@H](C)C(=O)N[C@@H](C)C(=O)N[C@H](C(=O)N[C@@H](C)C(=O)N[C@@H](C)C(=O)N[C@@H](C)C(=O)N[C@@H](C)C(=O)NCC(=O)O)C(C)C)C(C)C [compound 131]
IL-5-Fluorospotr % donor coverage (TCL-02 DK1) [1]: 22.22%
IFN-gamma % donor coverage (TCL-02 DK1) [2]: 0.00%
Proliferation % donor coverage (TCL-02 DK1) [3]: 55.55%
Proliferation strength (TCL-02 DK1) [3]: 6.50

WGAIWRIDTPDKLTGPFTVR-OH [compound 11]
IL-5-Fluorospotr % donor coverage (TCL-02 DK1) [1]: 24.00%
IFN-gamma % donor coverage (TCL-02 DK1) [2]: 8.00%
Proliferation % donor coverage (TCL-02 DK1) [3]: 46.67%
Proliferation strength (TCL-02 DK1) [3]: 4.80
